The results in this text go back to US20250049970A1, “DLL3 TARGETING PEPTIDES AND CONSTRUCTS THEREOF” (MARIANA ONCOLOGY INC., priority 2023, published 2025).

Data set [1] relates to CT26.DLL3 cells. The data set is described as follows: Cell binding (total uptake) of [177Lu]Lu-labeled peptide, CT26.DLL3 cells. In kind it is cell-based. The conditions noted are these: 1 h, 37° C. The essentials: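 [177Lu]Lu-labelled peptide was prepared at pH ~5 and 80 °C, with purity checked by RP-HPLC, then formulated in 1% PBSA. CT26.DLL3 cells (5-25 million per condition) were incubated with 0.8 μCi for 1 h at 37 °C. After cold PBS/BSA washes, bound and unbound fractions were gamma-counted and uptake was reported as a percentage band.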

For data set [2], the system named is CT26.DLL3 cells. The data set is described as follows: Internalization of [177Lu]Lu-labeled peptide, CT26.DLL3 cells. The conditions noted are these: 1 h, 37° C. The format is cell-based. The essentials: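 [177Lu]Lu-chelator-peptides labelled at pH ~5, 80 °C, checked by RP-HPLC, formulated in 1% PBSA. Detached cells (5-25 million/condition) counted as bound fraction, stripped twice with 50 mM glycine pH 2.5 for 3 min, lysed in 0.3 M NaOH and gamma-counted as internalized fraction; values binned as ≤25, 25-50, >50 %.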

Data set [3] concerns SHP-77 cells. The data set is described as follows: Cell binding (total uptake) of [177Lu]Lu-labeled peptide, SHP-77 cells. The format is cell-based. The conditions noted are these: 1 h, 37° C. The method, then: (§1) [^177Lu]LuCl3 was received from venders in HCl solution. For every mCi of [^177Lu]LuCl3 added to the reaction vial (1.5 mL Eppendorf vial), ammonium acetate buffer (0.2 M, pH 4.9, 100 μL, containing 1% w/v ascorbic acid and 6% v/v ethanol) and peptide conjugate (1 nmol; also referred to herein as “chelator-peptides”) was added. The pH of the solution was determined to be approximately 5 by using pH strips. The reaction vial was incubated at 80° C., 700 RPM for 17-20 minutes. A sample from the reaction was analyzed by RP-HPLC using an Agilent Infinity II 1260 HPLC to determine reaction completion and radiochemical purity of [^177Lu]Lu-chelator-peptides. HPLC conditions: Waters XBridge BEH C18 Column, 130A, 3.5 μm, 4.6 mm×250 mm; mobile phase: Solvent A=water (with 0.1% formic acid), solvent B=acetonitrile (with 0.1% formic acid). Gradients: 25-45% B in 10 minutes, 45-65% B in 12 minutes, 65-90% in 6 minutes at a flow rate of 0.5 mL/minutes Required amounts of the product was formulated in 1% PBSA for cell studies.
(§2) The study was conducted using SHP-77, CT26.WT, CT26.DLL3, and HEK293.DLL3 cells (Table 9)
(§3) Adherent cell studies: The cells were cultured in appropriate culture media (20 mL) in tissue culture treated T150 flasks at 37° C. and 5% C02. Adherent cells were detached (60-70% confluent) using 5 mL Versene at 37° C. for 3 minutes. After confirming the viability using countess and count of detached cells using Trypan blue, the cells were centrifuged at 4° C. for 5 minutes (1,000 rpm). The cell pellet obtained was washed once with PBS and resuspended in 1% PBSA to obtain the desired cell concentration (5-25 million cells/mL).
(§4) Suspension cell studies: The cells were cultured in appropriate culture media (20 mL) in tissue culture treated T150 flasks at 37° C. and 5% CO2. After confirming the viability and count of detached cells using Trypan blue, the cells were centrifuged at 4° C. for 5 minutes (1,000 rpm). The cell pellet obtained was washed once with PBS and resuspended in 1% PBSA to obtain the desired cell concentration (5-25 million cells/mL).
(§5) Cell numbers used for the assay were in the range of 5 million cells/condition-25 million cells/condition.
Total uptake: Cells were incubated with 300 μL (0.8 μCi) of the incubation buffer (containing radiolabeled peptide [^177Lu]Lu-test peptide) for 1 hour at 37° C. (Table 10). Post incubation, the cells were pelleted and washed 2 times using cold PBS+1% BSA. The supernatant and washes were combined and counted together as “unbound fraction” in a gamma counter. The cells were then resuspended in 300 μL of 1% PBS+1% BSA and counted in the gamma counter as “bound fraction”.
(§6) In these Tables, “A” represents % s ≤25; “B” represents 25 <% ≤50; “C” represents % >50.

The subject of data set [4] is SHP-77 cells. As to the kind of experiment: Internalization of [177Lu]Lu-labeled peptide, SHP-77 cells. The format is cell-based. The settings on record: 1 h, 37° C. The method, then:
as §1, §2, §3, §4, §5
Internalization: The resuspended cells in 300 μL of 1% PBSA and counted in the gamma counter as “bound fraction” were collected in 1.5 mL Eppendorf tube and pelleted. The pelleted cells were incubated with 300 μL of 50 mM Glycine pH=2.5 for 3 minutes and then pelleted discarding the supernatant. This process was repeated one more time. The pelleted cells were washed with 300 μL of cold 1% PBSA and then resuspended in 300 μl 0.3M NaOH. This was counted in the gamma counter as “internalized fraction”.
as §6

The test system of data set [5] is nude mice bearing SHP-77 tumors. The data set is described as follows: Ex vivo biodistribution of radiolabeled peptides (% IA/g) in nude mice bearing SHP-77 tumors. The conditions noted are these: [177Lu]Lu labelling, 24 hours post-injection, intravenous. The gist of the method: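 [177Lu]Lu-peptides were given as an IV tail-vein bolus once tumors reached 200-400 mm^3. Injected activity was set per mouse from syringe dose-calibrator readings. At set time points, tissues were weighed and gamma-counted, and counts were decay-corrected to injection and expressed as % IA/g.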

The target of the next data set is T1, DLL3 (Homo sapiens, UniProt Q9NYJ7).
T1 sequence (Q9NYJ7 27-618): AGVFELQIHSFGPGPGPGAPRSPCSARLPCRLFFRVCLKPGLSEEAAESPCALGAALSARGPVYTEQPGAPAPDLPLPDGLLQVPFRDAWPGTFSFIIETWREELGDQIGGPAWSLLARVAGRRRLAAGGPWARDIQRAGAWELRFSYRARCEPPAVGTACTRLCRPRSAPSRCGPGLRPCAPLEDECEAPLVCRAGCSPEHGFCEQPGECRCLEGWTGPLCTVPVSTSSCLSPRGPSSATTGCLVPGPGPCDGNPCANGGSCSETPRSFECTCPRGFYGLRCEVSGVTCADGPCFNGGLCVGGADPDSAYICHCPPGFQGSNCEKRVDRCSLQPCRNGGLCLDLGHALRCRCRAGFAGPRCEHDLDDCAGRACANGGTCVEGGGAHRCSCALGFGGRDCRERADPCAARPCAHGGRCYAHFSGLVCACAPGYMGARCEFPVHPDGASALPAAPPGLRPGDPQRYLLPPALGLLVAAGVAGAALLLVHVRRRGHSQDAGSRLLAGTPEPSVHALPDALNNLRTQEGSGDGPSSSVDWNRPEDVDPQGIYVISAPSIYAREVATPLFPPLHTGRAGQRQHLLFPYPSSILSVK
As to the kind of experiment: SPR KD, biotinylated human DLL3 on streptavidin chip (Table 8). Also on record: biotin (biotinylated). The settings on record: biotinylated human DLL3 on streptavidin sensor chip, 25° C., 1:1 binding model; read-out: SPR KD. From the text: Biotinylated target ligand human DLL3 was immobilized on a streptavidin sensor chip. A reference surface was set up for nonspecific binding and refractive index changes. […] Sensorgram curves were fitted with 1:1 binding model, and affinity and kinetic parameters were obtained using Biacore Insight evaluation 4.0. software.

The target in a further data set is T2, DLL3 on CT26.DLL3 cells (Homo sapiens (Human), UniProt Q9NYJ7 27-618).
T2 construct: CT26.DLL3 are engineered cells to express DLL3
T2 sequence: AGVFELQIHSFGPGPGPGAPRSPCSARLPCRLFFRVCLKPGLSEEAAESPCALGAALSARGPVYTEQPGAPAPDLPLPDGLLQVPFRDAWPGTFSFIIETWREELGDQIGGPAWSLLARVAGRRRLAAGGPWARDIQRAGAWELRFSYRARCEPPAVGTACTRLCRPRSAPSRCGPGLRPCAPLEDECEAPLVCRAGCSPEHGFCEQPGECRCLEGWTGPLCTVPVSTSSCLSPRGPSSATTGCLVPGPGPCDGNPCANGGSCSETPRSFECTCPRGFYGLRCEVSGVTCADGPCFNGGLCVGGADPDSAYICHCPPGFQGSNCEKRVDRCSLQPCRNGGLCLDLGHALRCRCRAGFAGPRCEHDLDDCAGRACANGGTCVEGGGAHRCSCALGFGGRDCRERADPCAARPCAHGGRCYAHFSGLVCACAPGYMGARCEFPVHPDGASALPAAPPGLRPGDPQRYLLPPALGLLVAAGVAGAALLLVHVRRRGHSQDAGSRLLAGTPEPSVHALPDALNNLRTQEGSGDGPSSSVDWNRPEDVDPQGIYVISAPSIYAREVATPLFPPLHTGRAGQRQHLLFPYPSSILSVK
As to the kind of experiment: [177Lu]Lu-labelled peptide on CT26.DLL3 cells, 1 h 37 C, gamma counter; A = %<=25. The method, then: as §3
Total uptake: Cells were incubated with 300 μL (0.8 μCi) of the incubation buffer (containing radiolabeled peptide [¹⁷⁷Lu]Lu-test peptide) for 1 hour at 37° C. (Table 10). Post incubation, the cells were pelleted and washed 2 times using cold PBS+1% BSA. The supernatant and washes were combined and counted together as “unbound fraction” in a gamma counter. The cells were then resuspended in 300 μL of 1% PBS+1% BSA and counted in the gamma counter as “bound fraction”.

*1 amine or outer side, *2 acyl side, *3 side chain or, on linkers, in order; H or OH if unused. Where a SMILES comes first, the peptide text is derived from it. Bridges are numbered along the chain shown (N, C = ends). [ ]: non-standard residue; d: D form. The star is where a group is joined. Ala(piperidin-4-yl) = O=C([C@H](CC1CCN([*:3])CC1)N[*:1])[*:2]; DOTA = O=C(O)CN1CCN(CC(=O)O)CCN(CC(=O)*)CCN(CC(=O)O)CC1; 2Nal = N[C@@H](Cc1ccc2ccccc2c1)C(=O)O; aIle = CC[C@@H](C)[C@H](N)C(=O)O; tBuAla = CC(C)(C)C[C@H](N)C(=O)O; Tle = CC(C)(C)[C@H](N)C(=O)O Where only a bound is given, the exact number is not on record here.

For `CC(=O)N[C@@H](Cc1c[nH]c2ccccc12)C(=O)N[C@H](C(=O)N[C@@H](CC(C)(C)C)C(=O)N[C@H]1CSSC[C@@H](C(=O)N[C@@H](Cc2c[nH]c3ccccc23)C(=O)N2CCC[C@H]2C(N)=O)NC(=O)[C@H](CC(=O)O)NC(=O)[C@H](CCCCNC(=O)CN2CCN(CC(=O)O)CCN(CC(=O)O)CCN(CC(=O)O)CC2)NC(=O)[C@H](Cc2ccc3ccccc3c2)NC(=O)[C@H](CC(N)=O)NC(=O)[C@H](CC2CCNCC2)NC1=O)[C@@H](C)O` [compound 314, Ac-W-T-(t-Bu-Ala)-C(3)-[3-(4-piperidinyl)-Ala]-N-(2Nal)-Lys(DOTA)-D-C(3)-W-P-CONH2] (Ac-WT[tBuAla]C[Ala(piperidin-4-yl)]N[2Nal]K(DOTA)DCWP-NH2; disulfide 4-10), the “% Binding” value with CT26.DLL3 cells [1] and in the data set on SHP-77 cells [3] was “B (25 <% ≤50)” throughout. The “% Internalization (out of bound fraction)” value in the data set on CT26.DLL3 cells [2] and in the data set on SHP-77 cells [4] was “B (25 <% ≤50)” throughout. Moreover, the “kidney uptake (% IA/g)” value in data set [5] is given as “C (“C” represents 0 < % IA/g ≤ 10 in)”. The “tumor uptake (% IA/g)” value in data set [5] is recorded as “A (“A” represents 0 < % IA/g ≤ 5 in tumor)”. In addition, at DLL3, the equilibrium dissociation constant (Kd) is below 1 nM.

For `CC[C@@H](C)[C@H](NC(=O)[C@@H](NC(=O)[C@H](Cc1c[nH]c2ccccc12)NC(C)=O)[C@@H](C)O)C(=O)N[C@H]1CSSC[C@@H](C(=O)N[C@@H](Cc2c[nH]c3ccccc23)C(=O)N2CCC[C@H]2C(N)=O)NC(=O)[C@H](CC(=O)O)NC(=O)[C@H](CCCCNC(=O)CN2CCN(CC(=O)O)CCN(CC(=O)O)CCN(CC(=O)O)CC2)NC(=O)[C@H](Cc2ccc3ccccc3c2)NC(=O)[C@H](CC(N)=O)NC(=O)[C@H](CC(N)=O)NC1=O` [compound 322, Ac-W-T-(Allo-Ile)-C(3)-N-N-(2Nal)-Lys(DOTA)-D-C(3)-W-P-CONH2] (Ac-WT[aIle]CNN[2Nal]K(DOTA)DCWP-NH2; disulfide 4-10), the “% Binding” value with CT26.DLL3 cells [1] and in the data set on SHP-77 cells [3] was “A (% s ≤25)” throughout. The results for the “% Internalization (out of bound fraction)” value in the data set with CT26.DLL3 cells [2] and in the data set with SHP-77 cells [4] were “C (% >50)” and “B (25 <% ≤50)”, respectively. Moreover, the “kidney uptake (% IA/g)” value in data set [5] was “D (“D” represents % IA/g > 10 in kidney)”. In addition, the “tumor uptake (% IA/g)” value in data set [5] is “A (“A” represents 0 < % IA/g ≤ 5 in tumor)”. The Kd at DLL3 was below 1 nM.

B1: Cpd No. 315 (peptide)
peptide: Ac-WT[Tle]CNN[2Nal]K(DOTA)DCWP-NH2
modifications: disulfide 4-10
SMILES: CC(=O)N[C@@H](Cc1c[nH]c2ccccc12)C(=O)N[C@H](C(=O)N[C@H](C(=O)N[C@H]1CSSC[C@@H](C(=O)N[C@@H](Cc2c[nH]c3ccccc23)C(=O)N2CCC[C@H]2C(N)=O)NC(=O)[C@H](CC(=O)O)NC(=O)[C@H](CCCCNC(=O)CN2CCN(CC(=O)O)CCN(CC(=O)O)CCN(CC(=O)O)CC2)NC(=O)[C@H](Cc2ccc3ccccc3c2)NC(=O)[C@H](CC(N)=O)NC(=O)[C@H](CC(N)=O)NC1=O)C(C)(C)C)[C@@H](C)O
In the case of B1, the “% Binding” value with DLL3 on CT26.DLL3 cells is at most 25%.
